Experimental data published in patent publication US7153685B2 (The Board of Trustees of the University of Illinois, priority 2002, dated 2006).

Assays:
[1] = tested on: pS2 ERE probe; assay: EMSA (gel mobility shift), ER binding to pS2 ERE probe
Protocol: CHO—S cells (Life-Technologies; Grand Island, N.Y.) were transfected using Lipofectamine 2000 (Life-Technologies). Transfection was performed according to the manufacturer's instructions, except cells were grown in 6-well plates coated with 1 ml of 0.1 mg/mL polylysine for 24 hours at 37° C. prior to transfection. One μg of CMV-hERα and 3 μg of pTZ18U carrier DNA were used for each well; DNA:Lipofectamine 2000 was 1:3. 17β-estradiol was added to a final concentration of 10 nM 1 hour before harvest. […]
(§1) Gel mobility shift assays were performed essentially as described [Zhang, 1999 #38]. […] Free probe and protein-DNA complexes were quantitated using a phosphor imager and ImageQuant 5.0 (Molecular Dynamics, Inc., Sunnyvale, Calif.). […]
To compare binding of wild type hERα and the ER mutants to the EREs, protein titrations were performed. […] The ER:ERE complexes were then analyzed by EMSA. […]
(§2) FIG. 1 (Legend) A. Panel (i), Western blots of normalized whole cell extracts of wild type hERα and mutants from transfected CHO-S cells. […] The data were calculated by PhosphorImager analysis. […] D (iii) contains a graph of the percentage of the labeled pS2 PAL probe shifted calculated by PhosphorImager analysis of the data in D(i) and D(ii).

[2] = tested on: ATL2/pS2 ERE-LUC reporter in HepG2 cells; assay: MOX-dependent transactivation by wild-type and mutant ERs, transient transfection, luciferase reporter; format: cell-based, human; conditions: 10 nM MOX
[3] = tested on: pS2 PAL probe; assay: EMSA (gel mobility shift), ER binding to pS2 PAL probe
Protocol: (§3) CHO—S cells (Life-Technologies; Grand Island, N.Y.) were transfected using Lipofectamine 2000 (Life-Technologies). Transfection was performed according to the manufacturer's instructions, except cells were grown in 6-well plates coated with 1 ml of 0.1 mg/mL polylysine for 24 hours at 37° C. prior to transfection. One μg of CMV-hERα and 3 μg of pTZ18U carrier DNA were used for each well; DNA:Lipofectamine 2000 was 1:3. 17β-estradiol was added to a final concentration of 10 nM 1 hour before harvest. Whole cell extracts were prepared as described (Zhang et al., 1996) with a modified extraction buffer (50 m-M Tris-HCl, pH 7.5, 1.5 mM EDTA, 10 mM Na2MoO4, 0.5 M NaCl, 10% glycerol, 0.5 mM β-mercaptoethanol, 50 μg/ml leupeptin, 1 μg/ml pepstatin and 5 μg/ml aprotinin).
as §1, §2

[4] = tested on: ATL2/PAL-LUC reporter in HepG2 cells; assay: MOX-dependent transactivation by wild-type and mutant ERs, transient transfection, luciferase reporter; format: cell-based, human; conditions: 10 nM MOX
[5] = tested on: cERE probe; assay: EMSA (gel mobility shift), ER binding to cERE probe; conditions: CHO-S extracts
Protocol: as §3
(§4) Gel mobility shift assays were performed essentially as described [Zhang, 1999 #38]. Each 20 μl reaction contained 50 mM KCl, 15 mM Tris-HCl (pH 7.9), 4 mM dithiothreitol, 0.2 mM EDTA, 3 μg of poly(dIdC) and 10% glycerol; bovine serum albumin (BSA) was added to each sample for a total of 10 μg of protein. Free probe and protein-DNA complexes were quantitated using a phosphor imager and ImageQuant 5.0 (Molecular Dynamics, Inc., Sunnyvale, Calif.). The sequence of one DNA strand of each of the three probes (SEQ ID NOS:61–63) used for the gel mobility shift assays are presented in Table 31. The ERE or PAL sequences are underlined.
To compare binding of wild type hERα and the ER mutants to the EREs, protein titrations were performed. Increasing amounts of extracts containing equivalent levels of wild-type ER or ER mutants were incubated with the cERE. The ER:ERE complexes were then analyzed by EMSA. […] The mutants required 1.5–2.4-fold more extract to bind 50% of the cERE probe than wild-type ER. […] Even at the highest level of extract (8 μg), wild-type ER shifted only ˜15% of the pS2 probe.
FIG. 1 (Legend) A. Panel (i), Western blots of normalized whole cell extracts of wild type hERα and mutants from transfected CHO-S cells. Lane 1–13: mutants 4, 2, 57.1, 50.1, 15.3, wild type ER, 7.2, 6.2, 4.3, 3.1, 2.1, wild type, and 3M, respectively. Panel (ii), The three ERE sequences used in these studies. The nucleotides that differ from those in the consensus ERE (cERE) are underlined. Nucleotides in lower case lettering are less well conserved or not conserved in EREs. […] The data were calculated by PhosphorImager analysis. (B) The labeled cERE probe was incubated with 0.5, 1.0, 2.0 and 4.0 μg of whole cell extracts of wild type hERα, or extracts containing the mutant ERs normalized to contain the same amount of ER as the wild-type ER extract at each point. (C) Gel shift assays using the labeled pS2 ERE probes and increasing amounts (1.0, 2.0, 4.0 and 8.0 μg) of the whole cell extracts containing wild-type ER and each of the ER mutants. (D) Gel shift assays using the labeled pS2 palindrome ERE probe. The ER extract contained 2.0, 4.0 and 8.0 μg of whole cell extract (panel (i)), and 15 μg (panel (ii)). Lanes 1–7 (panel (ii)) represent wild type hERα, and mutants 3M, 3.1, 4.3, 6.2, 2 and 4, respectively. D (iii) contains a graph of the percentage of the labeled pS2 PAL probe shifted calculated by PhosphorImager analysis of the data in D(i) and D(ii).

[6] = tested on: ER3M-VP16 fusion proteins (N-79, N-129, C-79, C-129); assay: ATL8/PAL-LUC transactivation with CMV-driven ER3M-VP16 fusion proteins in HepG2 cells; format: cell-based, human; conditions: 10 nM ICI 182,780, no OHT
Excerpt: These fragments were digested with KpnI and BamHI and then purified from agarose gels. […] To create C-129, this ER fragment was digested with XbaI and KpnI and then cloned together with the DNA fragment containing 129 amino acids of VP16 into 5.9 kb vector generated by digestion of CMV-hER with XbaI and BamHI. The same strategy was adopted to create C-79 using the DNA fragment containing 79 amino acids of VP16. Therefore, the expression of these chimeras is driven by the same CMV promoter as that of ER-3M. […] The amplified PCR product was digested with NcoI and NotI. […] This fragment and the NcoI/NotI PCR fragment were then inserted together into the 4.3 kb vector, pGL3-ATL8/PAL-LUC, which was created by digesting ATL8/PAL-LUC completely with NcoI and partially with XbaI so that the luciferase gene was replaced by N-79.

[7] = molecular target: T1, wild type hERα (Homo sapiens, UniProt P03372, G400V); assay: Ligand-dependent luciferase reporter transactivation in transfected HepG2 cells; conditions: for MOX-dependent increase in luciferase activity: ATL2/cERE-LUC, 10 nM MOX
T1 sequence (P03372 1-595 G400V): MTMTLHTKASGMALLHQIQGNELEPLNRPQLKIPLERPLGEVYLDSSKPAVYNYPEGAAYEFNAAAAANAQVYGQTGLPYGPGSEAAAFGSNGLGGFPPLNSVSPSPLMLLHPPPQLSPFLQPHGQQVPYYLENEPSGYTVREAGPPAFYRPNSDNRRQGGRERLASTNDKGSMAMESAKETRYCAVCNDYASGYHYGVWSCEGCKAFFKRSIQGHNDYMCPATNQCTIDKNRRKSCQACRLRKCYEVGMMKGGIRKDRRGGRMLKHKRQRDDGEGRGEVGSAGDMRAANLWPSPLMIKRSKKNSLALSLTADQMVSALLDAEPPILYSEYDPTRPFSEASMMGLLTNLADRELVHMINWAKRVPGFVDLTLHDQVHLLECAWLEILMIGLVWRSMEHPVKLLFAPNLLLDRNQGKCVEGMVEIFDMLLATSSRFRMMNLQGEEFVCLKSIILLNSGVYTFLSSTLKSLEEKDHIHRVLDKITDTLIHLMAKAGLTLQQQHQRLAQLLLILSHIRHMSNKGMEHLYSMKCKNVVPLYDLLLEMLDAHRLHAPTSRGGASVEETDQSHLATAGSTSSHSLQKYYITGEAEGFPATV
Protocol: HepG2 human hepatoma cells were maintained in a humidified 5% CO2 incubator at 37° C. in Dulbecco's Modified Eagle's Medium (DMEM; Sigma; St. Louis, Mo.) supplemented with 10 % charcoal-dextran-stripped fetal bovine serum (CD-FBS; Atlanta Biologicals, Inc; Atlanta, Ga.), 50,000 U/l of penicillin, and 50 mg/liter streptomycin (Life Technologies, Inc.). MCF-7 cells were routinely maintained in DMEM/Nutrient Mixture F-12 (DMEM/F12) supplemented with 10% heat-inactived FBS, 50,000 U/l of penicillin, and 50 mg/l streptomycin. CHO-S cells were maintained in DMEM/F12 supplemented with 10% heat-inactivated FBS (CD-FBS when ERs were being expressed) or 10% CD-new born calf serum (CD-NBCS, when reporter activity by different ligands were measured), 29.2 mg/l L-glutamine (Sigma), and 50,000 U/l of penicillin and 50 mg/l streptomycin.
Transient transfections in HepG2 cells was accomplished using calcium phosphate co-precipitation (Ausubel et al., 1987). Briefly, cells were plated in 12-well microplates at a density of 1×10^5 cells/well. The next day, the medium was replaced, and 2–6 hours later, precipitated calcium phosphate:DNA co-crystals were added. After 12–16 hours, the cells were shocked for 3 minutes with 20% glycerol in Tris-buffered saline, pH 7.4. Fresh medium and (if any) hormones were added. For MCF-7 and 231 cells, transient transfection was carried out using the Tfx™-20 reagent (Promega; Madison, Wis.) according to the manufacturer's direction with minor changes. Briefly, 1×10^5 cells were plated in each well of 12-well microplates one day before transfection. A 1:3 ratio of DNA to lipid was used. The DMEM/F12 medium without serum was used as carrier for the DNA-lipid mixture. After 1 hour incubation with the DNA-lipid-DMEM/F12 at 37° C., the cells were transferred to fresh DMEM/F12 supplemented with 10% CD-FBS, 50,000 U/I of penicillin, 50 mg/l streptomycin and hormones. Transfection on CHO—S cells was described as above for the preparation of ERs extraction except the medium contained 10% CD-NBCS. The cells subjected to either transfection method were harvested 48 hours post-transfection. Reporter assays were performed by lysing the cells in situ with 250 μl of passive lysis buffer (Promega). Activity was determined using the dual luciferase assay protocol according to the manufacturer's directions (Promega) on a Monolight 2010 luminometer (Analytical Luminescence, San Diego, Calif.)
Transient transfections of HepG2 cells were carried out and luciferase activity determined.

[8] = tested on: putative ERE in the Bcl2 gene; assay: EMSA, ER binding to putative ERE in the Bcl2 gene; conditions: summary statement
Protocol: as §4
It therefore seemed possible that binding of wild-type ER to the pS2 ERE is based on strong binding of one monomer of the ER dimer to the cERE half site (aGGTCA; SEQ ID NO: 65) and weak non-specific interaction of the other ER monomer with the sequence at the other half site. To test this possibility, binding of wild-type and the ER mutants to a putative ERE in the Bcl2 gene was examined. Like pS2, Bcl2 contains a cERE half site, but also contains a second, different half site that deviates from the consensus sequence by one nucleotide.

Compound | activation of transcription from native pS2 ERE compared with wild-type ER [2] | binding to cERE and pS2 ERE DNA probes [5] | also measured
ER6.2: ERα DNA binding domain mutant, SEQ ID NO:10 (EGCKAFFKRSIARRLDY; Mutant DBD of ER) | less effective | – | change in binding to pS2 ERE probe compared with cERE [1]: dramatic decrease in binding; binding to pS2 PAL [3]: negligible binding; ability to activate transcription of the pS2 PAL reporter [4]: little or no ability to activate transcription
ER3.1: ERα DNA binding domain mutant, SEQ ID NO:6 (WGCKAFFKRSINRHNSY; Mutant DBD of ER) | less effective | – | –
ER57.1: ERα DNA binding domain mutant, SEQ ID NO:24 (WSCKGFFKRSIKGVPTY; Mutant DBD of ER) | – | little or no binding | –
ER2.1: ERα DNA binding domain mutant, SEQ ID NO:16 (WSCKAFFKRSIAGGNDY; Mutant DBD of ER) | – | little or no binding | –
ER50.1: ERα DNA binding domain mutant, SEQ ID NO:22 (WSCKGFFKRSKQGHNDY; Mutant DBD of ER) | – | little or no binding | –
C[C@]12CC[C@@H]3c4ccc(O)cc4C[C@@H](CCCCCCCCC[S+]([O-])CCCC(F)(F)C(F)(F)F)[C@H]3[C@@H]1CC[C@@H]2O (some centres unmarked) [ICI 182,780] | – | – | effect on basal transactivation by the fusion proteins [6]: decreased
ER7.2: ERα DNA binding domain mutant, SEQ ID NO:18 (EGCKAFFKRSIQRHPRY; Mutant DBD of ER) | – | little or no binding | –
ER2: ERα DNA binding domain mutant, SEQ ID NO:12 (WGCKAFFKRSIARHNDY; Mutant DBD of ER) | less effective | – | –
C#C[C@]1(O)CC[C@H]2[C@@H]3CCc4cc(O)ccc4[C@H]3[C@@H](OC)C[C@@]21C [MOX, moxestrol] | – | – | transactivation level on two copies of pS2 PAL ([7]; ATL2/PAL-LUC, 10 nM ligand): undetectable; MOX-dependent increase in luciferase activity ([7]; 0.75 ng expression plasmid): 32 fold; MOX-dependent increase in luciferase activity ([7]; 2.5 ng expression plasmid): 41 fold
ER4: ERα DNA binding domain mutant, SEQ ID NO:14 (WGCKAFFKRSIARGNDY; Mutant DBD of ER) | more effectively than wild-type ER | – | –
ER15.3: ERα DNA binding domain mutant, SEQ ID NO:20 (ESCKAFFKRSIGGHNYY; Mutant DBD of ER) | – | little or no binding | –
ER4.3: ERα DNA binding domain mutant, SEQ ID NO:8 (WGCKAFFKRSIVRPTDY; Mutant DBD of ER) | more effectively than wild-type ER | – | binding to, or transcription from, the Bcl2 and TGF α1 EREs [8]: no detectable binding to, or transcription from
ER3M: ERα DNA binding domain mutant, residues 203–219 as SEQ ID NO:4 (WGCKAFFKRSIAGGNDY; Mutant DBD of ER) | more effectively than wild-type ER | – | binding to, or transcription from, the Bcl2 and TGF α1 EREs [8]: no detectable binding to, or transcription from
